Here are results for six compounds from US5843992A, “Epoxysuccinic acid derivatives” (Nippon Chemiphar Co., Ltd., priority 1995, dated 1998).

Like-named read-outs stand apart in the source and are kept apart here.

For experiment [1], the target named is T1, cathepsin B (Rattus norvegicus, UniProt P00787).
T1 construct: Preparation of Rat Liver Lysosome Fraction; from tissue; host or cells: rat liver lysosome fraction (male Wistar rat)
The experiment in a line: Cathepsin B inhibitory action (lysosome fraction, Z-Arg-Arg-MCA). The format is biochemical, rat (Wistar). To be noted: pH 6.0, 30° C.; read-out: Cathepsin B Inhibition (IC50). The method, then:
Male rat of Wistar strain was killed by exsangulnation and a ice-chilled physiological saline was introduced into portal vein for circulation. Then, its liver was taken out. Thereafter, the following procedures were performed at 4° C.
The liver was minced by scissors. Five grams of minced liver were homogenized in a Potter type Teflon Homogenizer after addition of 0.25M aqueous sucrose solution in a volume as much as nine times. The homogenized mixture was centrifuged for 10 minutes at 800 G. The resulting supernatant was further centrifuged at 12,000 G for 20 minutes. The precipitate was homogenized in 25 mL of 0.25M aqueous sucrose solution, and then centrifuged for 20 minutes at 12,000 G. The resulting precipitate was further homogenized after 100 mL of 0.25M aqueous sucrose solution. Thus, a lysosome fraction was obtained.
To 0.25 mL of a solution (pH: 6.0) containing 352 mM KH2 PO4, 48 mM Na2 HPO4, 5.32 mM EDTA.2 Na and 10 mM L-cysteine were added 0.1 mL of the lysosome fraction, 5 μL of the test compound solution, and 0.545 mL of distilled water. The mixture was preincubated at 30° C. for 15 minutes. Thereafter, the reaction was started by the addition of 0.1 mL of a solution of 50 μM carbobenzoxy-L-arginine-L-arginine-4-methylcoumaryl-7-amide (Z-Arg-Arg-MCA, substrate). The reaction was performed at 30° C. for 20 minutes, and then terminated by addition of 1 mL of an aqueous solution (pH: 4.3) containing 100 mM sodium monochloroacetate, 30 mM sodium acetate and 70 mM acetic acid. The finally obtained solution was subjected to measurement of fluorescence strength (excitation wavelength: 380 nm, emission wavelength: 460 nm).

For experiment [2], the system named is ICR mouse calvaria (bone resorption). The experiment in a line: Bone resorption inhibitory activity (PTH-stimulated calcium release from mouse calvaria). The class given is cell-based. Particulars: read-out: Bone Resorption Inhibition, inhibition ratio (%). How it is done:
From ICR mouse (age: 6 to 7 days), calvaria was taken under aseptic conditions. The calvaria was divided along the median line into two parts after its connective tissue was removed. In a culture medium (modified BGjb medium, containing 5% inactivated bovine fetal serum) in an amount of 1 mL per a pair of bones, a pre-culture was performed for 24 hours under the conditions of 5% CO2 and 37° C. After the pre-culture was complete, each one of bone was placed in 0.5 mL of the same culture medium containing the test compound of different concentration, and cultured for 72 hours in the presence of 3×10^-7 M parathyroid hormone (PTH). For the control, culture was performed in the same manner except for using neither test compound nor PTH.
After the culture was complete, the amount of calcium released in the supernatant of the culture medium in the 72 hour culture as well as the amount of calcium contained in the bone (dissolved in 1 mL of 6N hydrochloric acid) were determined by ortho-cresol phthalein complexon (OCPC) method.
The calcium release ratio (%) was calculated according to the following equation: [formula]
The inhibition ratio (%) of bone resorption by the test compound was calculated according to the following equation: [formula]

Experiment [3] concerns the target cathepsin L (Rattus norvegicus, UniProt P07154). The experiment in a line: Cathepsin L inhibitory action (rat liver lysosome fraction, Z-Phe-Arg-MCA). The class given is biochemical, rat (Wistar). Particulars: pH 5.5, 30° C., in the presence of 10^-7 M CA-074; read-out: Cathepsin L Inhibition IC50.
The target in experiment [4] is T1, cathepsin B. To be noted: 10^-7 M CA-074, pH 5.5, Z-Phe-Arg-MCA; cited from earlier work.
[5] abbreviates: Concentration of Test Comp. 10^-4 M, 72 hours, 3×10^-7 M PTH.
[6] abbreviates: Concentration of Test Comp. 10^-5 M, 72 hours, 3×10^-7 M PTH.
Where [7] appears, read: Concentration of Test Comp. 10^-6 M, 72 hours, 3×10^-7 M PTH.

Chain of cathepsin L (P07154 114-334): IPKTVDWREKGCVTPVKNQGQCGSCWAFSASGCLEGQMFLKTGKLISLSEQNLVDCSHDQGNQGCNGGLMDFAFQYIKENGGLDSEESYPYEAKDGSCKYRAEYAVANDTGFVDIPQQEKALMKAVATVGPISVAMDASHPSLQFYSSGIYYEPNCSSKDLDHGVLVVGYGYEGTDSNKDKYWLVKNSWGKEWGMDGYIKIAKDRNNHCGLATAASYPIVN
T1 sequence (P00787 80-339): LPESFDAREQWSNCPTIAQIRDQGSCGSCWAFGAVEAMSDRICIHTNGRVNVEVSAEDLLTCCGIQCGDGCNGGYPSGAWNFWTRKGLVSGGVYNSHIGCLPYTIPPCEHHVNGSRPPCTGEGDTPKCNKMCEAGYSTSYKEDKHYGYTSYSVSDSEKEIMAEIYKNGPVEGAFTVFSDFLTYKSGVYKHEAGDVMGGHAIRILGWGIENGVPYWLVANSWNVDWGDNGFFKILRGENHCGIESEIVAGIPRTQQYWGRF

By IC50 is commonly meant the concentration needed to halve the response being measured. In the case of `O=C(O)[C@H]1O[C@@H]1C(=O)NC(Cc1ccccc1)Cc1ccccc1`, the IC50 in experiment [1] stood at 200 nM.
Turning to `O=C(O)[C@H]1O[C@@H]1C(=O)NC(c1ccccc1)c1ccccc1`, in experiment [2] (72 h), the inhibition at 1 µM was determined as 90%, the inhibition at 10 µM is 82% and the inhibition at 100 µM was 95%. Also, the IC50 in experiment [3] turned out to be 240 nM. Also, the IC50 in experiment [1] was 230 nM.
On to `CC(C)CCC(CCC(C)C)NC(=O)[C@H]1O[C@@H]1C(=O)O`, for which, in experiment [2] (72 h), the inhibition at 1 µM was 63%, the inhibition at 10 µM is 87% and the inhibition at 100 µM is 82%. Also, in experiment [3], the IC50 is 19 nM. In addition, in experiment [1], the IC50 is 310 nM.
For the compound `CC(C)CCNC(=O)[C@H]1O[C@@H]1C(=O)O` (relative stereo) [Comparison X, reference compound], in experiment [2] (setting [5]), the inhibition at 100 µM was 66%. Moreover, the inhibition at 10 µM in experiment [2] (setting [6]) stood at 40%. Further, the inhibition at 1 µM in experiment [2] (setting [7]) turned out to be 25%. In experiment [3], the IC50 was 78 nM.
On to `O=C(O)[C@H]1O[C@@H]1C(=O)NCc1ccccc1` (relative stereo) [Comparison Y, reference compound], for which the inhibition at 100 µM in experiment [2] (setting [5]) came to 44%. The inhibition at 10 µM in experiment [2] (setting [6]) is 38%. Also, the inhibition at 1 µM in experiment [2] (setting [7]) is 21%. In addition, the concentration for half-maximal inhibition (IC50) in experiment [3] came to 350 nM.
`CCCNC(=O)[C@H]1O[C@@H]1C(=O)N[C@H](C(=O)N1CCC[C@H]1C(=O)O)[C@@H](C)CC` [CA-074]: the “cathepsin B activity inhibition” value in experiment [4] is listed as “completely inhibited”.
